Consider 5 compounds from paper PMC13385394, “Cryo-EM Structure of the TRPC1/5 Heteromer Enables Design of Antidepressant and Anxiolytic Drug with Reduced Side Effects” (Nature Communications, 2026).

pIC50: −log10 of the molar value.

Type in all cases: cell-based
The target in assay [1] is T1, TRPC1/5 heteromers (Homo sapiens, UniProt P48995+Q9UL62).
T1 construct: wild type plasmids full-length hTRPC1 (WT) and full-length hTRPC5 (WT); expressed in transfected cells; host or cells: HEK293T
In words: Whole-cell patch-clamp, agonist activation of TRPC1/5 (TRPC1 and TRPC5 co-transfected) in HEK293T cells. An excerpt:
(§1) The full-length hTRPC5 or truncated mTRPC5, and the full-length hTRPC1 constructs was respectively co-transfected in a plasmid ration 1:3 (w/w) into HEK293T cells (from the ATCC). As previously described, a mCherry was inserted into TRPC5 constructs and a GFP was inserted at the C terminus of TRPC1. Therefore, Cells with red and green fluorescence were selected for whole-cell patch recordings (HEKA EPC10 amplifier, […] software (https://www.heka.com/downloads/downloads_main.html#down_patchmaster)). A 1-s ramp protocol from −100 to +100 mV was applied at a frequency of 0.2 Hz. Signals were sampled at 50 kHz and filtered at 2.9 kHz. The pipette solution contained 130 mM CsCl, 1 mM MgCl2, 5.7 mM CaCl2, 10 mM EGTA, and 10 mM Hepes (calculated free Ca^2+, 200 nM), and the pH was titrated to 7.2 using CsOH[40]. The standard bath solution contained 140 mM NaCl, 5 mM KCl, 1 mM MgCl2, 2 mM CaCl2, 10 mM Hepes, and 10 mM D-glucose, and the pH was adjusted to 7.4 with NaOH (1 M). The recording chamber (150 μL) was perfused at a rate of ~2 mL/min. All recordings were performed at room temperature.
In general terms: Patch clamp records ionic current or voltage across a cell membrane.

Assay [2] has as its target T2, TRPC5 homomers (Homo sapiens, UniProt Q9UL62).
T2 construct: full length hTRPC5 (TRPC5 wild type (WT)); expressed in transfected cells; host or cells: HEK293T
T2 sequence (Q9UL62 1-973): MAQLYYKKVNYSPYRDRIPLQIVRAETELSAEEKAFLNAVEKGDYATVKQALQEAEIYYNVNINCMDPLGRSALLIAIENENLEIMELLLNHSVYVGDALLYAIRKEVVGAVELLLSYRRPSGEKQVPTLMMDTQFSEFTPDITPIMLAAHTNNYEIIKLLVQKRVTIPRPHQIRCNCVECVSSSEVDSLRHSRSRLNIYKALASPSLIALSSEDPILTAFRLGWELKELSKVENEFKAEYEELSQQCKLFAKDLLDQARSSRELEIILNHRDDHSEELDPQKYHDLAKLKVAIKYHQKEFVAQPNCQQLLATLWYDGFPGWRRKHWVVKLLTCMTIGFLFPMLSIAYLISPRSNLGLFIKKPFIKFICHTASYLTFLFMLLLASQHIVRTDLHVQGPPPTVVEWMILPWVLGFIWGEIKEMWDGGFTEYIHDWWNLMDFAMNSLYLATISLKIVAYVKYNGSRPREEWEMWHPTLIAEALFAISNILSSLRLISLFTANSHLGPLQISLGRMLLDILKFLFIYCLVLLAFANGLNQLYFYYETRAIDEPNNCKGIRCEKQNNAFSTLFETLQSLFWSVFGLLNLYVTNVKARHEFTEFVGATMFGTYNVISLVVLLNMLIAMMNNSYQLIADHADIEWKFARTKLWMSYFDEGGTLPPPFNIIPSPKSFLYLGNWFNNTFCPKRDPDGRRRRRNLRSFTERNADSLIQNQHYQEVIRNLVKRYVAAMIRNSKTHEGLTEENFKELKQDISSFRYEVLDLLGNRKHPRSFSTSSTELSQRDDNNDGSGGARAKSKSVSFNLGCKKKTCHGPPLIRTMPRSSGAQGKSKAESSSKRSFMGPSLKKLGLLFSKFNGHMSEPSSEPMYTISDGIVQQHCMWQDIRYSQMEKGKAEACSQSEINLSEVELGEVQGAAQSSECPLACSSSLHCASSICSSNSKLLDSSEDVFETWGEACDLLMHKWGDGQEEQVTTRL
In words: Whole-cell patch-clamp, agonist activation of TRPC5 homomers in HEK293T cells.

The target in a further assay is T3, TRPC1/5 (Homo sapiens, UniProt P48995+Q9UL62).
T3 construct: Full-length, non-tagged hTRPC1 and hTRPC5 constructs are used for calcium flux assays; expressed in transfected cells; host or cells: HEK293T
As to the kind of experiment: Calcium flux assay (Calcium 5 kit, EA 100 nM), hTRPC1 + hTRPC5 in HEK293T cells. The following applies: calcium flux screening, 10 μM. As to the method: Full-length, non-tagged hTRPC1 and hTRPC5 constructs are used for calcium flux assays. hTRPC5 is transfected alone or co-transfected with hTRPC1 into HEK293T cells (70–80% confluency) using PEI as the transfection reagent.
The culture medium is removed, and 100 µL of loading buffer (Calcium 5 Assay Kit) is added to each well, followed by a 1-h incubation at 37 °C in 5% CO2. Five minutes before measurement, molecules are added to each well at a final concentration of 10 µM under light-sensitive conditions.
(Calcium assays in cells follow changes in intracellular calcium, usually with a dye or a luminescent sensor.)

For the next assay, the target named is T4, hTRPC5 (Homo sapiens, UniProt Q9UL62).
T4 construct: Full-length, non-tagged hTRPC1 and hTRPC5 constructs are used for calcium flux assays; expressed in transfected cells; host or cells: HEK293T
T4 sequence (Q9UL62 1-973): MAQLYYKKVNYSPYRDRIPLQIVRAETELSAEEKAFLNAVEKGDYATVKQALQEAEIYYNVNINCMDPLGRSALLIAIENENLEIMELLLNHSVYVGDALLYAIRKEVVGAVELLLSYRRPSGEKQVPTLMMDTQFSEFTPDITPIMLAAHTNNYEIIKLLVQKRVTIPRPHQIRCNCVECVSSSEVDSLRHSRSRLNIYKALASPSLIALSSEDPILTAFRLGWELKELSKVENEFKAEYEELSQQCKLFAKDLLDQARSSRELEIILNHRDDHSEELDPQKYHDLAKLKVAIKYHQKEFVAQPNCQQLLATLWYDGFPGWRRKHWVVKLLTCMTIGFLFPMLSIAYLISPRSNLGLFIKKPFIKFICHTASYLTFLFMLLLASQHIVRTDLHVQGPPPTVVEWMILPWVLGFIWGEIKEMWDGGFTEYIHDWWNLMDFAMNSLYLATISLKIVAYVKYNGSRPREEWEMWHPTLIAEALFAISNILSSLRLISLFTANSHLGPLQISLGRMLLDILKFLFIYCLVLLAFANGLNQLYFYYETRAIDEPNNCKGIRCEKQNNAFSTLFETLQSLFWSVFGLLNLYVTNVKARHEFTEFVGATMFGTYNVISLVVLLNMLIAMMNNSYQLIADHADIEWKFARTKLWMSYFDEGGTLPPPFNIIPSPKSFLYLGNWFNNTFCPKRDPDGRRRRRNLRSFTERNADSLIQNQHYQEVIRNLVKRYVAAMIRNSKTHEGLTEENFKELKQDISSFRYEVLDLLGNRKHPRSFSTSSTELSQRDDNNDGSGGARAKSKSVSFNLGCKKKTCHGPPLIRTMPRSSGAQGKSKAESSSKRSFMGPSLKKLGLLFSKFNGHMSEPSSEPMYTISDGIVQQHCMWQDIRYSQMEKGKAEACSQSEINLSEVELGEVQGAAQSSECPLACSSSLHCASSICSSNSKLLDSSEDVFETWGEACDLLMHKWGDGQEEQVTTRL
As to the kind of experiment: Calcium flux assay (Calcium 5 kit, EA 100 nM), hTRPC5 in HEK293T cells. Conditions: calcium flux screening, 10 μM. As to the method: Five minutes before measurement, molecules are added to each well at a final concentration of 10 µM under light-sensitive conditions.

In assay [3] the target is T2, TRPC5 homomers. As to the kind of experiment: Whole-cell patch-clamp, inhibition of EA-activated TRPC5 homomers. The following applies: whole-cell patch-clamp.
Assay [4] concerns the target T1, TRPC1/5 heteromers. In words: Whole-cell patch-clamp, inhibition of EA-activated TRPC1/5 heteromers. The following applies: whole-cell patch-clamp; read-out: IC50, TRPC1/C5.
Text: as §1

T1 sequence (P48995 whole entry, one chain of several): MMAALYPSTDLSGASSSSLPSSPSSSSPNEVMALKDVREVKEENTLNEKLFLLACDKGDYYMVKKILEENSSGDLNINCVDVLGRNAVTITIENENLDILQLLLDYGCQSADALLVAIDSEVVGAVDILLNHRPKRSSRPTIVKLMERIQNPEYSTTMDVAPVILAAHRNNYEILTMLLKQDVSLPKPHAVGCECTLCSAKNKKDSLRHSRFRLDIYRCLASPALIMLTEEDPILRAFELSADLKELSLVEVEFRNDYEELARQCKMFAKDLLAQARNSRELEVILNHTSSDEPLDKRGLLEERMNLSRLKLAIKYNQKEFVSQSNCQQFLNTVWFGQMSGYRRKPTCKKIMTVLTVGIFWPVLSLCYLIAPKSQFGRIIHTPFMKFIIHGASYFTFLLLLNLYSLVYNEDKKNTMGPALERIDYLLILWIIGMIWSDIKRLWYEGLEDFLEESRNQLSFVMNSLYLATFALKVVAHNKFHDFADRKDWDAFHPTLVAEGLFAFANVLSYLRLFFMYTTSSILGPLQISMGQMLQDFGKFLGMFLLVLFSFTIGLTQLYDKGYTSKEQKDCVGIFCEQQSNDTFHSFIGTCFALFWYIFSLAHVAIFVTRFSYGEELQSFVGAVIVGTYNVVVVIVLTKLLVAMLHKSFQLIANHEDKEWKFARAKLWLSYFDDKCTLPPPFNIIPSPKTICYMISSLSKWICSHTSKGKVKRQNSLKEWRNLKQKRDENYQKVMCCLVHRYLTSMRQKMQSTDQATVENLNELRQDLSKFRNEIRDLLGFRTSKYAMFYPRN
T3 sequence (P48995 whole entry, one chain of several): as above

As to `Cn1c(=O)n(CCCO)c(=O)c2c1nc(Oc1ccc(Cl)c(OC(F)(F)F)c1)n2Cc1ccc(Cl)cc1` [AM237], the “activation of TRPC1/5 heteromers (in words)” value on TRPC1/5 heteromers [1] is “not TRPC1/5 heteromers”. Moreover, at TRPC5 homomers [2], the “activation of TRPC5 homomers (in words)” value is on record as “activates TRPC5 homomers”.
On to `Cn1c(=O)n(CCN2CCCC2)c(=O)c2c1nc(Oc1cccc(Cl)c1)n2Cc1ccc(Cl)cc1` [H01], for which, on TRPC1/5, the “inhibition of TRPC1/5 heteromers (in words)” value is “moderate inhibition”. The “inhibitory activity toward TRPC5 homomers (in words)” value at hTRPC5 is reported as “markedly reduced inhibitory activity”.
Take `CC(C)NCCn1c(=O)c2c(nc(Oc3cccc(Cl)c3)n2Cc2ccc(Cl)cc2)n(C)c1=O` [H02]: the “inhibition of TRPC1/5 heteromers (in words)” value on TRPC1/5 is on record as “moderate inhibition”. Besides, the “inhibitory activity toward TRPC5 homomers (in words)” value at hTRPC5 was “markedly reduced inhibitory activity”.
As for `Cn1c(=O)n(CCNCc2ccccc2)c(=O)c2c1nc(Oc1cccc(Cl)c1)n2Cc1ccc(Cl)cc1` [H03], at hTRPC5, the “inhibitory activity toward TRPC5 homomers (in words)” value is “restored TRPC5 homomer inhibition”.
`CN(C)CCCCCCn1c(=O)c2c(nc(Oc3cccc(Cl)c3)n2Cc2ccc(Cl)cc2)n(C)c1=O` [H10]: at TRPC5 homomers [3], the “HillSlope, TRPC5” value was 0.3841 and the pIC50 was 6.30. The pIC50 at TRPC1/5 heteromers [4] is 8.59.
